This is an account of results in ChEMBL document CHEMBL5696440, “Inhibition of BET recruitment to chromatin as an effective treatment for MLL-fusion leukaemia” (Nature, 2011).

Data set [1] has as its target Prostaglandin G/H synthase 2 (Homo sapiens, UniProt P35354). Nature of the data set: Inhibition of human COX-2 by FLINT assay.
Data set [2] concerns the target 3',5'-cyclic-AMP phosphodiesterase 4B (Homo sapiens, UniProt Q07343). Put plainly: Inhibition of human PDE4B by luminescence assay.
Data set [3] addresses 5-hydroxytryptamine receptor 1B (Homo sapiens, UniProt P28222). Nature of the data set: Inhibition of human 5-HT1B in presence of GTPgS.
For data set [4], the target named is 5-hydroxytryptamine receptor 2A (Homo sapiens, UniProt P28223). Nature of the data set: Inhibition of human 5-HT2A by intracellular Ca2+ luminescence assay. The format is functional, cell-based.
Data set [5] concerns the target 5-hydroxytryptamine receptor 2C (Homo sapiens, UniProt P28335). Put plainly: Inhibition of human 5-HT2C by intracellular Ca2+ luminescence assay. The format is functional, cell-based.
Data set [6] concerns the target Alpha-1B adrenergic receptor (Homo sapiens, UniProt P35368). Put plainly: Inhibition of human adrenergic alpha 1B by intracellular Ca2+ fluorescence assay. The format is functional, cell-based.
Data set [7] concerns the target Beta-2 adrenergic receptor (Homo sapiens, UniProt P07550). Put plainly: Inhibition of human beta2 adrenoceptor […] incubated for 1 hr by TR-FRET assay. Background: Time-resolved FRET reads energy transfer from a long-lived donor to a nearby acceptor.
The target of a further data set is D(2) dopamine receptor (Homo sapiens, UniProt P14416). Nature of the data set: Inhibition of human dopamine 2 receptor in presence of GTPgS.
A further data set addresses D(1A) dopamine receptor (Homo sapiens, UniProt P21728). Put plainly: Inhibition of His6-tagged human dopamine 1 receptor […] incubated for 1 hr by TR-FRET assay.
The next data set deals with Histamine H1 receptor (Homo sapiens, UniProt P35367). Nature of the data set: Inhibition of human HRH1 by intracellular Ca2+ luminescence assay. The format is functional, cell-based.
In data set [8] the target is Serotonin 3 (5-HT3) receptor. Put plainly: Inhibition of human 5-HT3 by intracellular Ca2+ fluorescence assay. The class given is cell-based.
Data set [9] deals with Muscarinic acetylcholine receptor M1 (Homo sapiens, UniProt P11229). Put plainly: Inhibition of human M1 by intracellular Ca2+ fluorescence assay. The class given is functional, cell-based.
Sequence of Muscarinic acetylcholine receptor M1 (P11229 whole entry): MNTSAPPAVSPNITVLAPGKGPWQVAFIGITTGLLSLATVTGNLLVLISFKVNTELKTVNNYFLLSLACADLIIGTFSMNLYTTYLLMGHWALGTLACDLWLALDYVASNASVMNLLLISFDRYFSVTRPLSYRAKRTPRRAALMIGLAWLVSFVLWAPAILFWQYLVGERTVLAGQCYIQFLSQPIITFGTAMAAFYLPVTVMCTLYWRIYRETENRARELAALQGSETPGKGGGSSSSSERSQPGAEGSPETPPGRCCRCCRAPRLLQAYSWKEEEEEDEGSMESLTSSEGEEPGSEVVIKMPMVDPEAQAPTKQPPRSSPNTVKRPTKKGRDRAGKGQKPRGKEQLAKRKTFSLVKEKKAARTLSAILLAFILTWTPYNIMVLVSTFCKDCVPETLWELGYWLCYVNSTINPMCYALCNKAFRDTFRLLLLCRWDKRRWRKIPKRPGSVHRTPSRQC
Data set [10] deals with Muscarinic acetylcholine receptor M2 (Homo sapiens, UniProt P08172). Put plainly: Inhibition of human M2 by intracellular Ca2+ fluorescence assay. The class given is functional, cell-based.
Another data set has as its target Substance-P receptor (Homo sapiens, UniProt P25103). Put plainly: Inhibition of human NK1 by intracellular Ca2+ luminescence assay. The class given is functional, cell-based.
The target of data set [11] is Kappa-type opioid receptor (Homo sapiens, UniProt P41145). Nature of the data set: Inhibition of human OPRK1 in presence of GTPgS.
Sequence of Kappa-type opioid receptor (P41145 whole entry): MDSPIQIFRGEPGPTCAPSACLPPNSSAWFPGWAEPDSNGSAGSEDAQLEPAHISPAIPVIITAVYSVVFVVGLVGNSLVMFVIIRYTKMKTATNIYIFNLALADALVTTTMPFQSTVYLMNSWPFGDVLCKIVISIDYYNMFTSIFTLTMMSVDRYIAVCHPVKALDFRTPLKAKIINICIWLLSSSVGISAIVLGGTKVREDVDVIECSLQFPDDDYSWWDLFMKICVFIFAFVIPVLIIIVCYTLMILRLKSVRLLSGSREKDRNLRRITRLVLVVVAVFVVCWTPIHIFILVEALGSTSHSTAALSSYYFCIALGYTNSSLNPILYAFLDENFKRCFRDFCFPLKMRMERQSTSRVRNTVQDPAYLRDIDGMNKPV
The next data set concerns the target Mu-type opioid receptor (Homo sapiens, UniProt P35372). Nature of the data set: Inhibition of human OPRM1 in presence of GTPgS.
The target of the next data set is Vasopressin V1a receptor (Homo sapiens, UniProt P37288). Nature of the data set: Inhibition of human V1a by intracellular Ca2+ fluorescence assay. The class given is functional, cell-based.
Sequence of Vasopressin V1a receptor (P37288 whole entry): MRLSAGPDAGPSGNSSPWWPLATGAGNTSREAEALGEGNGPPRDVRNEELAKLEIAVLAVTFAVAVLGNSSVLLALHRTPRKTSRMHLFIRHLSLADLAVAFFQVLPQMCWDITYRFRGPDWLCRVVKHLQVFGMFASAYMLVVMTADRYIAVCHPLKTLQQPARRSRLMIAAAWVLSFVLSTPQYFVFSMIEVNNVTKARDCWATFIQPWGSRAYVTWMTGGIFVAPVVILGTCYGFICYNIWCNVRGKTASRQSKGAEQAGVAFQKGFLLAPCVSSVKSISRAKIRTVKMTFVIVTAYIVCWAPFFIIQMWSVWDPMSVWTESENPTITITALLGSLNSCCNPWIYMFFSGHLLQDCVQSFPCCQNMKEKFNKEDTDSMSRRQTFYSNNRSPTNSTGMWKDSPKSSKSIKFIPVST
Data set [12] concerns the target Acetylcholine receptor subunit alpha (Homo sapiens, UniProt P02708). Put plainly: Inhibition of human alpha 1 nAChR by intracellular Ca2+ fluorescence assay. The format is cell-based.
In data set [13] the target is Voltage-dependent L-type calcium channel subunit alpha-1C (Homo sapiens, UniProt Q13936). Nature of the data set: Inhibition of human CaV1.2 by intracellular Ca2+ fluorescence assay. The class given is cell-based.
Sequence of Voltage-dependent L-type calcium channel subunit alpha-1C (Q13936 whole entry): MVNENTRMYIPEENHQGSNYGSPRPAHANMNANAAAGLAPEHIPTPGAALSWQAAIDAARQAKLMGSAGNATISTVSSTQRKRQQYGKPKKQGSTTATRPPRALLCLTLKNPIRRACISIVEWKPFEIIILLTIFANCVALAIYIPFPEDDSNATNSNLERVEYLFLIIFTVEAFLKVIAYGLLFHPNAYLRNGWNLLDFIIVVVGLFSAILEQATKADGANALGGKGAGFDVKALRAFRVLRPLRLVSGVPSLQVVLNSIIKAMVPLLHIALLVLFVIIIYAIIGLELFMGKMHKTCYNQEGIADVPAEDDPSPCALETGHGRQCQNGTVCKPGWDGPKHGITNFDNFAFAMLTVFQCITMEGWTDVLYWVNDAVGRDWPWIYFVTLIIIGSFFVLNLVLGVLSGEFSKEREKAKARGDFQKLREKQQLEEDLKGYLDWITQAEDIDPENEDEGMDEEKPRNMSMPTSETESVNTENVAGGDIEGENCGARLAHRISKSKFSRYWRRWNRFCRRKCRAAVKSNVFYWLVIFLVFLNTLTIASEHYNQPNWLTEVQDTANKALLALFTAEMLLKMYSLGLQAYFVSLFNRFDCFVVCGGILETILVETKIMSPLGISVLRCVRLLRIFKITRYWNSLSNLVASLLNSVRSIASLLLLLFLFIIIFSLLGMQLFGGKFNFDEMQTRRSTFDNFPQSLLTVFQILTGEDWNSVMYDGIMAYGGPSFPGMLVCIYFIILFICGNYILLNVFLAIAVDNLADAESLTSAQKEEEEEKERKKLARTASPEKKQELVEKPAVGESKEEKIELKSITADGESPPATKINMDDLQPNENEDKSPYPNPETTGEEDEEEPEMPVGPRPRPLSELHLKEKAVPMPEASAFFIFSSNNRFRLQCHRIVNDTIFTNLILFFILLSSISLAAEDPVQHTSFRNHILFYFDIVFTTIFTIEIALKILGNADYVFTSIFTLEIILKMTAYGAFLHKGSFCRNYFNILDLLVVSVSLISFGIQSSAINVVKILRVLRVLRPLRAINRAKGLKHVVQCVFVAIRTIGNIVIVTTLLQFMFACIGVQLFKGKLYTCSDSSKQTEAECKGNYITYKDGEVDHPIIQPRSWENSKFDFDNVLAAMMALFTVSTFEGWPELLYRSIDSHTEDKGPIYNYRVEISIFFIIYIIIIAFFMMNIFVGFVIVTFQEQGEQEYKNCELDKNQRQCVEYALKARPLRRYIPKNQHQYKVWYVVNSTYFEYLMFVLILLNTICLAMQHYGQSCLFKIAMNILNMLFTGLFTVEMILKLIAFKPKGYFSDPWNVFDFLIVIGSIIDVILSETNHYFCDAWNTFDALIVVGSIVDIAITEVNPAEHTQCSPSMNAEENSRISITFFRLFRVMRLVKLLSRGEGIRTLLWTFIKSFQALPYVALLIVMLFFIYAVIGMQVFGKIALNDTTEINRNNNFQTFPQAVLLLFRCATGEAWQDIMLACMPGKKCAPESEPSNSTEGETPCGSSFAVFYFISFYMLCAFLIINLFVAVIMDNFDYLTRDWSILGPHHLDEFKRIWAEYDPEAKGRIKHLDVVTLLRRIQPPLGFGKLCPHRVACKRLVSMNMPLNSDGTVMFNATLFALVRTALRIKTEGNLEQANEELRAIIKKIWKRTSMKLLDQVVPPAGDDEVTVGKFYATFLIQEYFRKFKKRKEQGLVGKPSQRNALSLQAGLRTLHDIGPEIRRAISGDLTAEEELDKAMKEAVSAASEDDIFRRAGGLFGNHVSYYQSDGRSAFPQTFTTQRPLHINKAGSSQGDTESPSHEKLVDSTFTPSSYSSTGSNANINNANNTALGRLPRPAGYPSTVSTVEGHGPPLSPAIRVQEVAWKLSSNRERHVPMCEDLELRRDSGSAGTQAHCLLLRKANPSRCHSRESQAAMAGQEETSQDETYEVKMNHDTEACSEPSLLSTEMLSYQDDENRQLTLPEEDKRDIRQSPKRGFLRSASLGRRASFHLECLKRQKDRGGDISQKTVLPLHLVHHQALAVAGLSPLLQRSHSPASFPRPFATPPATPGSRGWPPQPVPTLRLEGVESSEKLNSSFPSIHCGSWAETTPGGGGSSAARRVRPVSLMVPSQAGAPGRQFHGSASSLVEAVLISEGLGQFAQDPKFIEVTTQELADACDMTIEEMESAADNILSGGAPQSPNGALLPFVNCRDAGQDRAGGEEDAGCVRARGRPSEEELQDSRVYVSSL
The target in data set [14] is Voltage-gated potassium channel, IKs; KCNQ1(Kv7.1)/KCNE1(MinK) (Homo sapiens, UniProt P15382+P51787). Nature of the data set: Inhibition of human KCNQ1/KCNE1 by blocker ionworks assay. The format is protein-complex assay. A general note: In patch-clamp work, channel activity is measured electrically.
In data set [15] the target is Potassium voltage-gated channel subfamily A member 5 (Homo sapiens, UniProt P22460). Put plainly: Inhibition of human Kv1.5 by blocker ionworks assay.
For data set [16], the target named is Sodium channel protein type 5 subunit alpha (Homo sapiens, UniProt Q14524). Nature of the data set: Inhibition of human NaV1.5 by blocker ionworks assay.
In the next data set the target is Aurora kinase B (Homo sapiens, UniProt Q96GD4). Put plainly: Inhibition of His6-tagged human Aurora B kinase at pH 7.4 incubated for 60 mins by Alexa Fluor 488 staining based fluorescence anisotropy analysis.
Data set [17] concerns the target Glycogen synthase kinase-3 beta (Homo sapiens, UniProt P49841). Put plainly: Inhibition of His6-tagged human GSK3beta at pH 7.4 incubated for 60 mins by Alexa Fluor 488 staining based fluorescence anisotropy analysis. For orientation: Polarisation of emitted light reports the rotation of a fluorescent probe.
Data set [18] addresses Tyrosine-protein kinase Lck (Homo sapiens, UniProt P06239). Put plainly: Inhibition of His6-tagged human LCK at pH 7.4 incubated for 60 mins by Alexa Fluor 488 staining based fluorescence anisotropy analysis.
Data set [19] concerns the target Phosphatidylinositol 4,5-bisphosphate 3-kinase catalytic subunit gamma isoform (Homo sapiens, UniProt P48736). Put plainly: Inhibition of His6-tagged human PI3K-gamma […] incubated for 1 hr by TR-FRET assay.
For data set [20], the target named is Sodium-dependent dopamine transporter (Homo sapiens, UniProt Q01959). Nature of the data set: Inhibition of human DAT by scintillation proximity assay.
Sequence of Sodium-dependent dopamine transporter (Q01959 whole entry): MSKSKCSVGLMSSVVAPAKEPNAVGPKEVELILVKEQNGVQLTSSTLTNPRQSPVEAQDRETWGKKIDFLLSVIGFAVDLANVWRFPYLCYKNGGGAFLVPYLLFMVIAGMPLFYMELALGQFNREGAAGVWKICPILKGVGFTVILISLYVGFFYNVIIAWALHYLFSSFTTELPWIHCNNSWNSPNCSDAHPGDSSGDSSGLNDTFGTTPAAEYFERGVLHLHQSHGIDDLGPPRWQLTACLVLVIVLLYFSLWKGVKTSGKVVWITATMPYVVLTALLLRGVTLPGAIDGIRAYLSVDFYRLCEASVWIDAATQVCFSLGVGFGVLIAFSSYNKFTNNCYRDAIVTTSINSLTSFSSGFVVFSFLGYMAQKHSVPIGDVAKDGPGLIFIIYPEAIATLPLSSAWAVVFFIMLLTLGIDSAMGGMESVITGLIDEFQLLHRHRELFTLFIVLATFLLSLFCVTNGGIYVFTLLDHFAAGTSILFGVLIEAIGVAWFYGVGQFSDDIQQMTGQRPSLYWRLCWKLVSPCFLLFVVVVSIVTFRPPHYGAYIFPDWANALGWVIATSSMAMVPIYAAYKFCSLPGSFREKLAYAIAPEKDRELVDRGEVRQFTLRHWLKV
Data set [21] deals with Solute carrier organic anion transporter family member 1B1 (Homo sapiens, UniProt Q9Y6L6). Put plainly: Inhibition of human OATP1B1 by FLINT imaging analysis.
Data set [22] can be described thus: Cmax in NOD:SCID mouse at 30 mg/kg, ip administered for 36 hrs by LC-MS/MS analysis. The class given is ADME, organism-based. The settings on record: in vivo.
Data set [23] is described as follows: AUC (0 to infinity) in NOD:SCID mouse at 30 mg/kg, ip administered for 36 hrs by LC-MS/MS analysis. The format is ADME, organism-based. The settings on record: in vivo.
The subject of a further data set is MV4-11. Nature of the data set: Antiproliferative activity against human MV4-11 cells assessed as inhibition of cell growth incubated for 72 hrs by CellTiter-Glo assay. The class given is functional, cell-based.
Data set [24] deals with Serine/threonine-protein kinase Chk1 (Homo sapiens, UniProt O14757). Put plainly: Inhibition of CHEK1 (unknown origin) incubated for 1 hr by colloidal coomassie staining based LC-MS/MS analysis.
Data set [25] addresses Cyclin-dependent kinase 2 (Homo sapiens, UniProt P24941). Nature of the data set: Inhibition of CDK2 (unknown origin) incubated for 1 hr by colloidal coomassie staining based LC-MS/MS analysis.
The target of data set [26] is Nucleoside diphosphate kinase A/B (Homo sapiens, UniProt P15531+P22392). Nature of the data set: Inhibition of NME1/NME2 (unknown origin) incubated for 1 hr by colloidal coomassie staining based LC-MS/MS analysis. The format is protein assay.
The next data set is described as follows: in vivo. Particulars: NOD:SCID, mouse, ip, 30 mg/kg.
The test system of another data set is NOMO-1. Put plainly: Antiproliferative activity against human NOMO-1 cells harboring MLL-AF9 assessed as inhibition of cell growth incubated for […] by CellTiter-Aqueous One assay. The format is functional, cell-based. Particulars: NOMO-1, 4 h.
A further data set relates to K562. Nature of the data set: cells. Particulars: Homo sapiens, K562, 4 h.
The nature of data set [27]: Cmax in NOD:SCID mouse at 30 mg/kg, ip administered for 24 hrs by LC-MS/MS analysis. The format is ADME, organism-based. The settings on record: in vivo.
The nature of data set [28]: AUC (0 to infinity) in NOD:SCID mouse at 30 mg/kg, ip administered for 24 hrs by LC-MS/MS analysis. The class given is ADME, organism-based. The settings on record: in vivo.
A short description of data set [29]: Half life in NOD:SCID mouse at 30 mg/kg, ip administered for 24 hrs by LC-MS/MS analysis. The format is ADME, organism-based. Particulars: in vivo.

Sequence of 5-hydroxytryptamine receptor 2C (P28335 whole entry): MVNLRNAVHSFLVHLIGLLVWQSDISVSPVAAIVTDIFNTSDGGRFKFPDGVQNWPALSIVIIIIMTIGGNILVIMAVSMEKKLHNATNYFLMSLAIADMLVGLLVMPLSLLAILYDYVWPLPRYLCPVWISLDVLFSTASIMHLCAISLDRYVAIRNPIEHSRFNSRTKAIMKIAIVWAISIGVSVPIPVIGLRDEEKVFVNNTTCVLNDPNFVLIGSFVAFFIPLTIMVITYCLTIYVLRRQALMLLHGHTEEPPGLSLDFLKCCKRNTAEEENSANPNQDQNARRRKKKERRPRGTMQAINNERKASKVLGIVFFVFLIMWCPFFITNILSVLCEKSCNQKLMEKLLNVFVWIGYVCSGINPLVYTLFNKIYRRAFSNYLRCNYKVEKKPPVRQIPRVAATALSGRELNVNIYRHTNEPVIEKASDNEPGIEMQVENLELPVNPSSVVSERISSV
Sequence of Alpha-1B adrenergic receptor (P35368 whole entry): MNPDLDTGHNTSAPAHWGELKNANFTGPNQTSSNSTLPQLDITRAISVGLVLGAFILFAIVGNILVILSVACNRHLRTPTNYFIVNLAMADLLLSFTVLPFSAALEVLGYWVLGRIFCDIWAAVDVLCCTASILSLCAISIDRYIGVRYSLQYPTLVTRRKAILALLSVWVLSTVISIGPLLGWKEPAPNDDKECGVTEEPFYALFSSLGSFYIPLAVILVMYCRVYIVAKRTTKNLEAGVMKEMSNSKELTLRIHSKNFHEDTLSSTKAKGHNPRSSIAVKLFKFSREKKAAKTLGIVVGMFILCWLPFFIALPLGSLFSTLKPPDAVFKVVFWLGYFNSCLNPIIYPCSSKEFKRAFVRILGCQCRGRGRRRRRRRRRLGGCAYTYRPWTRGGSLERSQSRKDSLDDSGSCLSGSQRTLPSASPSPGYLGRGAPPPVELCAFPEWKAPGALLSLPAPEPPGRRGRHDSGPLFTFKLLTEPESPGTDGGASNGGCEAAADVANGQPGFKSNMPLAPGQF

As usually defined, the IC50 is the point on the concentration scale where inhibition reaches its midpoint. As usually defined, the Cmax is the peak of the concentration-time curve. One may read the AUC as concentration integrated over time. Low readings indicate less exposure, high ones more exposure. In general, half-life refers to how long it takes for the measured level to halve. Higher therefore signals slow decline. With `CCNC(=O)C[C@@H]1N=C(c2ccc(Cl)cc2)c2cc(OC)ccc2-n2c(C)nnc21` [MOLIBRESIB], the IC50 in data set [1] was more than 100 µM; in [2], more than 25 µM; in data set [3] it was more than 100 µM; in [4] it was more than 40 µM; in data set [5] it was more than 40 µM; in [6], more than 40 µM. Further, the IC50 in [7] was more than 31.6 µM; at D(2) dopamine receptor, more than 100 µM; against D(1A) dopamine receptor, more than 31.6 µM; at Histamine H1 receptor, more than 40 µM; in data set [8], more than 50 µM; in data set [9], more than 15.1 µM. The half-inhibitory concentration (IC50) in data set [10] is more than 15.8 µM; on Substance-P receptor it was more than 40 µM; in data set [11], more than 100 µM; at Mu-type opioid receptor, more than 100 µM; against Vasopressin V1a receptor, more than 50 µM; in data set [12] it was 15.8 µM. In addition, the IC50 in [13] was more than 15.8 µM; in [14] it was more than 25 µM; in [15], more than 50 µM; in [16], more than 100 µM; at Aurora kinase B, more than 25 µM; in data set [17], more than 25 µM. In addition, the IC50 in data set [18] was more than 25 µM; in data set [19], more than 25 µM; in [20], 79 µM; in data set [21], 12.6 µM; in the data set with MV4-11 (Homo sapiens, MV4-11, 72 h) it was 0.102 µM; in data set [24], more than 10 µM. The results for the concentration for half-maximal inhibition (IC50) in data set [25] and in data set [26] were not below 10 µM and more than 10 µM, respectively. Also, the concentration in data set [22] peaked (Cmax) at 21.9 µM. The AUC in [23] was 40.3 µM·h. Also, in the data set with MV4-11 (time 72 hrs), the IC100 is recorded as 723 nM. In the data set “in vivo”, this molecule showed a half-life at 36 h of 1.6 h.
As for `O=C(Nc1c[nH]nc1-c1nc2ccc(CN3CCOCC3)cc2[nH]1)NC1CC1` [AT-9283], the IC50 was more than 10 µM in the data set with NOMO-1 and 0.26 µM with K562.
In data set [27], `Cc1sc2c(c1C)C(c1ccc(Cl)cc1)=N[C@@H](CC(=O)OC(C)(C)C)c1nnc(C)n1-2` had a Cmax of 0.84 µM. For the same molecule, in data set [28], the AUC was found to be 2 µM·h. Further, in data set [29], the half-life was 2.3 h.
